Measured values: patent US9555039B2, “Piperidine derivatives and compositions for the inhibition of nicotinamide phosphoribosyltransferase (NAMPT)” (Forma TM, LLC., priority 2011, dated 2017)
Read-outs that look alike come from different tables or passages of the source.

Key:
[1] = target: T1, Recombinant His-tagged NAMPT (Homo sapiens, UniProt P43490); assay: Biochemical inhibition assay: NAMPT enzymatic reaction, NMN quantified by mass spectrometry; conditions: 33 nM NAMPT, 1 μM NAM, 100 μM PRPP, 30 minutes at room temperature, read-out: Biochem IC50
T1 construct: His; host or cells: E. coli
In short: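 Reaction 30 min at room temperature with 1 μM NAM, 100 μM PRPP, 2.5 mM ATP (final), quenched with formic acid. NMN quantified by RapidFire electrospray MS, normalized to L-cystathionine; IC50 from percent inhibition versus DMSO.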

A2780 cells = assay: In-vitro cell proliferation assay (SRB, 72 hours); format: cell-based; conditions: sulforhodamine B (SRB) assay
In short: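 Background from media-only plate subtracted; inhibition relative to DMSO-treated cells, value derived by interpolation between two concentrations.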

T1 sequence (P43490 whole entry): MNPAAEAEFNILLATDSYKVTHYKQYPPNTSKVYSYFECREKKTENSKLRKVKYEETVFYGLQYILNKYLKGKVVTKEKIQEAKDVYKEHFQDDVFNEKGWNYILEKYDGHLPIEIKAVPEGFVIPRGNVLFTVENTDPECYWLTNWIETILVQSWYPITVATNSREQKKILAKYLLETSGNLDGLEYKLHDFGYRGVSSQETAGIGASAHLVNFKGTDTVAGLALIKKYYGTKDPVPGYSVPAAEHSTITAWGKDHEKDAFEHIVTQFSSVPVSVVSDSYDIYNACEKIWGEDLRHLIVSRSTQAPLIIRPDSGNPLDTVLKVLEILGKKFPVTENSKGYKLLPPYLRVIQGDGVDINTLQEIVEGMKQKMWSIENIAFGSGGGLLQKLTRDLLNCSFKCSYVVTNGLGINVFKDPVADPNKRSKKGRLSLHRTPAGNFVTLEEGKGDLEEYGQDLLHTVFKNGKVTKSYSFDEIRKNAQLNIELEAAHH

## O=C(NCCCCC1CCN(C(=O)c2cccnc2)CC1)c1cc2cnccc2[nH]1 [N-(4-{1-[(pyridin-3-yl)carbonyl]piperidin-4-yl}butyl)-1H-pyrrolo[3,2-c]pyridine-2-carboxamide]
[1]; 2.5 mM ATP
  IC50: 98.6 nM
A2780 cells; Homo sapiens
  IC50: 23.1 nM

## O=C(NCCCCC1CCN(C(=O)c2cccnc2)CC1)c1ccc2nccn2c1 [N-(4-{1-[(pyridin-3-yl)carbonyl]piperidin-4-yl}butyl)imidazo[1,2-a]pyridine-6-carboxamide]
[1]; 2.5 mM ATP
  IC50: 12.7 nM
A2780 cells; Homo sapiens
  IC50: 27.4 nM

## O=C(NCCCCC1CCN(C(=O)c2cccnc2)CC1)c1cc2ccncc2s1 [N-(4-{1-[(pyridin-3-yl)carbonyl]piperidin-4-yl}butyl)thieno[2,3-c]pyridine-2-carboxamide]
[1]; 2.5 mM ATP
  IC50: 11.1 nM
A2780 cells; Homo sapiens
  IC50: 27.4 nM

## O=C(NCCCCC1CCN(C(=O)c2ccncc2)CC1)c1cc2cnccc2[nH]1 [N-(4-{1-[(pyridin-4-yl)carbonyl]piperidin-4-yl}butyl)-1H-pyrrolo[3,2-c]pyridine-2-carboxamide]
[1]; 2.5 mM ATP
  IC50: 9.7 nM
A2780 cells; Homo sapiens
  IC50: 4.4 nM

## O=C(NCCCCN1CCN(C(=O)c2cccc(Cl)c2)CC1)c1cc2cnccc2[nH]1 [N-(4-{4-[(3-chlorophenyl)carbonyl]piperazin-1-yl}butyl)-1H-pyrrolo[3,2-c]pyridine-2-carboxamide]
[1]; 2.5 mM ATP
  IC50: 106 nM
A2780 cells; Homo sapiens
  IC50: 347 nM

## COc1cccc(C(=O)N2CCN(CCCCNC(=O)c3cc4cnccc4[nH]3)CC2)c1 [N-(4-{4-[(3-methoxyphenyl)carbonyl]piperazin-1-yl}butyl)-1H-pyrrolo[3,2-c]pyridine-2-carboxamide]
[1]; 2.5 mM ATP
  IC50: 436 nM
A2780 cells; Homo sapiens
  IC50: 855 nM

## O=C(NCCC1CCN(C(=O)c2ccccc2)CC1)c1cc2cnccc2[nH]1 [N-[2-(1-benzoylpiperidin-4-yl)ethyl]-1H-pyrrolo[3,2-c]pyridine-2-carboxamide]
[1]; 2.5 mM ATP
  IC50: 10000 nM
A2780 cells; Homo sapiens
  IC50: 20000 nM

## O=C(NCCc1ccc(-c2ccccc2)cc1)c1cc2cnccc2[nH]1 [N-[2-(4-phenylphenyl)ethyl]-1H-pyrrolo[3,2-c]pyridine-2-carboxamide]
[1]; 2.5 mM ATP
  IC50: 126 nM
A2780 cells; Homo sapiens
  IC50: 3980 nM

## O=C(NCCCCC1CCN(C(=O)c2ccccc2)CC1)c1cc2cnccc2[nH]1 [N-[4-(1-benzoylpiperidin-4-yl)butyl]-1H-pyrrolo[3,2-c]pyridine-2-carboxamide]
[1]; 2.5 mM ATP
  IC50: 8.1 nM
A2780 cells; Homo sapiens
  IC50: 1.4 nM

## O=C(NCCCCC1CCN(C(=O)c2ccccc2)CC1)c1ccc2nccn2c1 [N-[4-(1-benzoylpiperidin-4-yl)butyl]imidazo[1,2-a]pyridine-6-carboxamide]
[1]; 2.5 mM ATP
  IC50: 5.5 nM
A2780 cells; Homo sapiens
  IC50: 5.7 nM

## O=C(NCCCCC1CCN(C(=O)c2ccccc2)CC1)c1cc2ccncc2s1 [N-[4-(1-benzoylpiperidin-4-yl)butyl]thieno[2,3-c]pyridine-2-carboxamide]
[1]; […] ATP
  IC50: 6.3 nM
A2780 cells; Homo sapiens
  IC50: 1.2 nM

## O=C(NCCCCC1CCN(C(=O)C2CCCCC2)CC1)c1cc2cnccc2[nH]1 [N-[4-(1-cyclohexanecarbonylpiperidin-4-yl)butyl]-1H-pyrrolo[3,2-c]pyridine-2-carboxamide]
[1]; 2.5 mM ATP
  IC50: 180 nM
A2780 cells; Homo sapiens
  IC50: 15.5 nM

## O=C(NCCCCC1CCN(C(=O)C2CCCCC2)CC1)c1ccc2nccn2c1 [N-[4-(1-cyclohexanecarbonylpiperidin-4-yl)butyl]imidazo[1,2-a]pyridine-6-carboxamide]
[1]; 2.5 mM ATP
  IC50: 18.1 nM
A2780 cells; Homo sapiens
  IC50: 0.9 nM

## O=C(NCCCCC1CCN(C(=O)C2CCCCC2)CC1)c1cc2ccncc2s1 [N-[4-(1-cyclohexanecarbonylpiperidin-4-yl)butyl]thieno[2,3-c]pyridine-2-carboxamide]
[1]; 2.5 mM ATP
  IC50: 77.9 nM
A2780 cells; Homo sapiens
  IC50: 72.7 nM

## CSc1ncccc1C(=O)N1CCC(CCCCNC(=O)c2cc3cnccc3[nH]2)CC1 [N-[4-(1-{[2-(methylsulfanyl)pyridin-3-yl]carbonyl}piperidin-4-yl)butyl]-1H-pyrrolo[3,2-c]pyridine-2-carboxamide]
[1]; 2.5 mM ATP
  IC50: 8.3 nM
A2780 cells; Homo sapiens
  IC50: 0.7 nM

## CSc1ncccc1C(=O)N1CCC(CCCCNC(=O)c2ccc3nccn3c2)CC1 [N-[4-(1-{[2-(methylsulfanyl)pyridin-3-yl]carbonyl}piperidin-4-yl)butyl]imidazo[1,2-a]pyridine-6-carboxamide]
[1]; 2.5 mM ATP
  IC50: 5.5 nM
A2780 cells; Homo sapiens
  IC50: 0.7 nM

## CSc1ncccc1C(=O)N1CCC(CCCCNC(=O)c2cc3ccncc3s2)CC1 [N-[4-(1-{[2-(methylsulfanyl)pyridin-3-yl]carbonyl}piperidin-4-yl)butyl]thieno[2,3-c]pyridine-2-carboxamide]
[1]; 2.5 mM ATP
  IC50: 10.1 nM
A2780 cells; Homo sapiens
  IC50: 1.4 nM

## O=C(NCCCCC1CCN(C(=O)c2csc(-c3cccnc3)n2)CC1)c1cc2cnccc2[nH]1 [N-[4-(1-{[2-(pyridin-3-yl)-1,3-thiazol-4-yl]carbonyl}piperidin-4-yl)butyl]-1H-pyrrolo[3,2-c]pyridine-2-carboxamide]
[1]; 2.5 mM ATP
  IC50: 81.1 nM
A2780 cells; Homo sapiens
  IC50: 14.9 nM

## O=C(NCCCCC1CCN(C(=O)c2csc(-c3cccnc3)n2)CC1)c1ccc2nccn2c1 [N-[4-(1-{[2-(pyridin-3-yl)-1,3-thiazol-4-yl]carbonyl}piperidin-4-yl)butyl]imidazo[1,2-a]pyridine-6-carboxamide]
[1]; 2.5 mM ATP
  IC50: 61.1 nM
A2780 cells; Homo sapiens
  IC50: 67 nM

## O=C(NCCCCC1CCN(C(=O)c2csc(-c3cccnc3)n2)CC1)c1cc2ccncc2s1 [N-[4-(1-{[2-(pyridin-3-yl)-1,3-thiazol-4-yl]carbonyl}piperidin-4-yl)butyl]thieno[2,3-c]pyridine-2-carboxamide]
[1]; 2.5 mM ATP
  IC50: 70.6 nM
A2780 cells; Homo sapiens
  IC50: 85.3 nM

## O=C(NCCCCC1CCN(S(=O)(=O)c2ccccc2OC(F)(F)F)CC1)c1cc2cnccc2[nH]1 [N-[4-(1-{[2-(trifluoromethoxy)benzene]sulfonyl}piperidin-4-yl)butyl]-1H-pyrrolo[3,2-c]pyridine-2-carboxamide]
[1]; […] ATP
  IC50: 22.6 nM
A2780 cells
  IC50: 3.3 nM

## O=C(NCCCCC1CCN(C(=O)c2ccccc2OC(F)(F)F)CC1)c1cc2cnccc2[nH]1 [N-[4-(1-{[2-(trifluoromethoxy)phenyl]carbonyl}piperidin-4-yl)butyl]-1H-pyrrolo[3,2-c]pyridine-2-carboxamide]
[1]; 2.5 mM ATP
  IC50: 20.5 nM
A2780 cells; Homo sapiens
  IC50: 1.3 nM

## O=C(NCCCCC1CCN(C(=O)c2ccccc2OC(F)(F)F)CC1)c1ccc2nccn2c1 [N-[4-(1-{[2-(trifluoromethoxy)phenyl]carbonyl}piperidin-4-yl)butyl]imidazo[1,2-a]pyridine-6-carboxamide]
[1]; 2.5 mM ATP
  IC50: 2.5 nM
A2780 cells; Homo sapiens
  IC50: 1.9 nM

## O=C(NCCCCC1CCN(C(=O)c2ccccc2OC(F)(F)F)CC1)c1cc2ccncc2s1 [N-[4-(1-{[2-(trifluoromethoxy)phenyl]carbonyl}piperidin-4-yl)butyl]thieno[2,3-c]pyridine-2-carboxamide]
[1]; 2.5 mM ATP
  IC50: 10.4 nM
A2780 cells; Homo sapiens
  IC50: 3.1 nM

## O=C(NCCCCC1CCN(C(=O)c2csc(C(F)(F)F)n2)CC1)c1ccc2nccn2c1 [N-[4-(1-{[2-(trifluoromethyl)-1,3-thiazol-4-yl]carbonyl}piperidin-4-yl)butyl]imidazo[1,2-a]pyridine-6-carboxamide]
[1]; 2.5 mM ATP
  IC50: 74.3 nM
A2780 cells; Homo sapiens
  IC50: 74 nM

## O=C(NCCCCC1CCN(C(=O)c2csc(C(F)(F)F)n2)CC1)c1cc2ccncc2s1 [N-[4-(1-{[2-(trifluoromethyl)-1,3-thiazol-4-yl]carbonyl}piperidin-4-yl)butyl]thieno[2,3-c]pyridine-2-carboxamide]
[1]; 2.5 mM ATP
  IC50: 94 nM
A2780 cells; Homo sapiens
  IC50: 100 to 1000 nM

## O=C(NCCCCC1CCN(C(=O)c2cnc(C(F)(F)F)nc2)CC1)c1cc2cnccc2[nH]1 [N-[4-(1-{[2-(trifluoromethyl)pyrimidin-5-yl]carbonyl}piperidin-4-yl)butyl]-1H-pyrrolo[3,2-c]pyridine-2-carboxamide]
[1]; 2.5 mM ATP
  IC50: 242 nM
A2780 cells; Homo sapiens
  IC50: 100 to 1000 nM

## O=C(NCCCCC1CCN(C(=O)c2cnc(C(F)(F)F)nc2)CC1)c1cc2ccncc2s1 [N-[4-(1-{[2-(trifluoromethyl)pyrimidin-5-yl]carbonyl}piperidin-4-yl)butyl]thieno[2,3-c]pyridine-2-carboxamide]
[1]; 2.5 mM ATP
  IC50: 158 nM
A2780 cells; Homo sapiens
  IC50: 100 to 1000 nM

## O=C(NCCCCC1CCN(S(=O)(=O)c2cccc(OC(F)(F)F)c2)CC1)c1cc2cnccc2[nH]1 [N-[4-(1-{[3-(trifluoromethoxy)benzene]sulfonyl}piperidin-4-yl)butyl]-1H-pyrrolo[3,2-c]pyridine-2-carboxamide]
[1]; […] ATP
  IC50: 77.8 nM
A2780 cells
  IC50: 18.7 nM

## O=C(NCCCCC1CCN(C(=O)c2ccc(-n3cccn3)cc2)CC1)c1cc2cnccc2[nH]1 [N-[4-(1-{[4-(1H-pyrazol-1-yl)phenyl]carbonyl}piperidin-4-yl)butyl]-1H-pyrrolo[3,2-c]pyridine-2-carboxamide]
[1]; 2.5 mM ATP
  IC50: 50.7 nM
A2780 cells; Homo sapiens
  IC50: 13.6 nM

## O=C(NCCCCC1CCN(C(=O)c2ccc(-n3cccn3)cc2)CC1)c1cc2ccncc2s1 [N-[4-(1-{[4-(1H-pyrazol-1-yl)phenyl]carbonyl}piperidin-4-yl)butyl]thieno[2,3-c]pyridine-2-carboxamide]
[1]; 2.5 mM ATP
  IC50: 48.1 nM
A2780 cells; Homo sapiens
  IC50: 100 to 1000 nM

## O=C(NCCCCC1CCN(C(=O)c2ccc(OC(F)F)cc2)CC1)c1cc2cnccc2[nH]1 [N-[4-(1-{[4-(difluoromethoxy)phenyl]carbonyl}piperidin-4-yl)butyl]-1H-pyrrolo[3,2-c]pyridine-2-carboxamide]
[1]; 2.5 mM ATP
  IC50: 183 nM
A2780 cells; Homo sapiens
  IC50: 31.4 nM

## O=C(NCCCCC1CCN(C(=O)c2ccc(OC(F)F)cc2)CC1)c1ccc2nccn2c1 [N-[4-(1-{[4-(difluoromethoxy)phenyl]carbonyl}piperidin-4-yl)butyl]imidazo[1,2-a]pyridine-6-carboxamide]
[1]; 2.5 mM ATP
  IC50: 42.7 nM
A2780 cells; Homo sapiens
  IC50: 101 nM

## O=C(NCCCCC1CCN(C(=O)c2ccc(OC(F)F)cc2)CC1)c1cc2ccncc2s1 [N-[4-(1-{[4-(difluoromethoxy)phenyl]carbonyl}piperidin-4-yl)butyl]thieno[2,3-c]pyridine-2-carboxamide]
[1]; 2.5 mM ATP
  IC50: 77.4 nM
A2780 cells; Homo sapiens
  IC50: 100 to 1000 nM
